# Assay: recombinant barcode read abundance after kanamycin selection (control-corrected) (log10(CPM+1)); higher = more efficient recombination; sequences stand for … in AGTGCAGAGAAAATCGGCCAGTTTTCTCTGCCTGCAGTCCGCATGCCGT…AGATTTATGCAGCGGACTGCCTTTCTCCCAAAGTGATAAACCGGACAGTATCATGGACCGGTTTTCCCGGTAATCCGTATTTGCAAGGTTGGTTTCACT; site = the 11-nt target
# Procedure, shortened: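 Pooled oligos, each joining a target to an IS621 bridge RNA target-binding loop, were cloned and co-electroporated with a donor plasmid into E. coli. Selective plates carried chloramphenicol/ampicillin/kanamycin and 0.1 mM IPTG, while chloramphenicol/ampicillin LB agar served as control, with two replicates of each. Recombination efficiency rests on averaged, control-corrected counts per million of barcodes at recombinant junctions, shown as log10(CPM+1).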
# 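Note: IS621 recombinase and bridge RNA in Escherichia coli cells.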
row,Sequence,recombinant barcode read abundance (log10)
1,GACGTGTCTTGGGTTCTAACCTGTTGCCG (site GACGTGTCTCG),0.408
2,TGTCAAGCTTGGGTTCTAACCTGTTGCCT (site TGTCAAGCTAG),0.46
3,CGTACCTCTTGGGTTCTAACCTGTTGCTT (site CGTACCTCTGA),0.406
4,TGCCAATCTTGGGTTCTAACCTGTTGCCT (site TTCCAATCTTG),0.0187
5,ACGGGGCCTTGGGTTCTAACCTGTTGCCG (site ACGGGGCCTCG),1.88
6,AGGGGAGCTTGGGTTCTAACCTGTTGCGG (site AGGGGAGCTCC),2.35
7,CTTGGACCTTGGGTTCTAACCTGTTGCCT (site CTTGGACCTAG),1.74
8,GAGTTTGCTTGGGTTCTAACCTGTTGCCT (site GGGTTTGCTAG),0.124
9,ATGGCCTCTTGGGTTCTAACCTGTTGCTA (site ATGGCCTCTTA),2.5
10,GCCCGGGCTTGGGTTCTAACCTGTTGCCG (site GCCTGGGCTCG),0.0679
11,CTACTTGCTTGGGTTCTAACCTGTTGCAA (site CTAGTTGCTTT),0.239
12,CTCGTTACTTGGGTTCTAACCTGTTGCCT (site CTCGTAACTAG),0.0393
13,GAGGACTCTTGGGTTCTAACCTGTTGCCT (site GAGGACTCTAG),3
14,CCTAACCCTTGGGTTCTAACCTGTTGCGT (site CCTAATCCTAC),0.381
15,TGTATGTCTTGGGTTCTAACCTGTTGCCT (site AGTATGTCTAG),0.0212
16,CTATTCCCTTGGGTTCTAACCTGTTGCCT (site CTATTCACTAG),0.1
17,TAACGTCCTTGGGTTCTAACCTGTTGCGT (site TAACGTCCTAC),1.4
18,GCTGGTCCTTGGGTTCTAACCTGTTGCCT (site GCAGGTCCTAG),0.311
19,GAGGGTCCTTGGGTTCTAACCTGTTGCCT (site GAGGGTCCTAT),0.457
20,TTCACACCTTGGGTTCTAACCTGTTGCCT (site TTCACAGCTAG),0.00569
21,ACACCCTCTTGGGTTCTAACCTGTTGCTT (site ACACCCTCTAA),2.5
22,CTGGCGTCTTGGGTTCTAACCTGTTGCCT (site CTGGAGTCTAG),0.263

row,Sequence,recombinant barcode read abundance (log10)
1,CCTCAATCTTGGGTTCTAACCTGTTGCTT (site CCTCACTCTAA),0.0745
2,TACGCTCCTTGGGTTCTAACCTGTTGCGT (site TACGCTCCTAG),0.0936
3,ACGACTGCTTGGGTTCTAACCTGTTGCCT (site ACGACTGCTAG),0.738
4,CCAGTAACTTGGGTTCTAACCTGTTGCCT (site CCAGTAACTAG),0.659
5,ACTGTCACTTGGGTTCTAACCTGTTGCCT (site ACTGTCACTAG),2.36
6,CGCGCCACTTGGGTTCTAACCTGTTGCCT (site CGCGCCACTAG),0.383
7,CAGCGAGCTTGGGTTCTAACCTGTTGCCG (site CAACGAGCTCG),0.21
8,TGGCCACCTTGGGTTCTAACCTGTTGCCT (site CGGCCACCTAG),0.115
9,GCATCGTCTTGGGTTCTAACCTGTTGCCT (site GCCTCGTCTAG),0.0437
10,AGTCTCGCTTGGGTTCTAACCTGTTGCGG (site AGTTTCGCTCC),0.0153
11,TCGCCTGCTTGGGTTCTAACCTGTTGCCT (site TCGCCTACTAG),0.282
12,GACCGCGCTTGGGTTCTAACCTGTTGCCT (site GACCGAGCTAG),0.672
13,CTAGTTACTTGGGTTCTAACCTGTTGCCT (site CTACTTACTAG),0.363
14,GTAATGACTTGGGTTCTAACCTGTTGCCT (site GCAATGACTAG),0.194
15,GCATCGTCTTGGGTTCTAACCTGTTGCCT (site GCTTCGTCTAG),0.0989
16,AAGCGAACTTGGGTTCTAACCTGTTGCCT (site AAGCCAACTAG),0.238
17,GGGGCGCCTTGGGTTCTAACCTGTTGCCT (site GGGGCGCCTAG),1.76
18,TCCAACCCTTGGGTTCTAACCTGTTGCTT (site CAGGGGACTGT),0.0296
19,TGTACGACTTGGGTTCTAACCTGTTGCCT (site TGTACGTCTAA),0.0793
20,GGGGTGTCTTGGGTTCTAACCTGTTGCCG (site GGGGTGTCTCG),0.675
21,CCTAAGACTTGGGTTCTAACCTGTTGCCA (site CCTAAGACTCG),0.133
22,TAGAAGGCTTGGGTTCTAACCTGTTGCGT (site TAGAAGGCTAG),0.273

row,Sequence,recombinant barcode read abundance (log10)
1,CTCCAGGCTTGGGTTCTAACCTGTTGCGG (site CTCCAGGCTCC),1.55
2,GTCAACCCTTGGGTTCTAACCTGTTGCTG (site GTCAAGCCTCA),0.32
3,GCCCCATCTTGGGTTCTAACCTGTTGCCT (site GCCCCATCTAG),0.601
4,ATGTACACTTGGGTTCTAACCTGTTGCCT (site ATGTACACTAG),1.55
5,CCACATCCTTGGGTTCTAACCTGTTGCCT (site CCACATCCTAG),0.289
6,TAACCTCCTTGGGTTCTAACCTGTTGCCT (site TAACCTCCTAG),0.444
7,CTAACCTCTTGGGTTCTAACCTGTTGCTT (site CTAACCTCTCA),0.149
8,CAAAAGGCTTGGGTTCTAACCTGTTGCCG (site GTGTCCTCTAC),0.239
9,GAGGGCCCTTGGGTTCTAACCTGTTGCCT (site GAGGGCCCTAG),2.41
10,TTGAAGCCTTGGGTTCTAACCTGTTGCCT (site GTGAAGCCTAG),0.0341
11,ACGACTGCTTGGGTTCTAACCTGTTGCCT (site ACGACTTCTAG),0.247
12,ATATTTCCTTGGGTTCTAACCTGTTGCCT (site ACATTTCCTAG),0.0246
13,AATGGGCCTTGGGTTCTAACCTGTTGCGT (site AATAGGCCTAC),1.71
14,GTACTCTCTTGGGTTCTAACCTGTTGCAG (site GTACTCTCTCT),1.33
15,GGCACTACTTGGGTTCTAACCTGTTGCGT (site GGCACTACTAC),0.28
16,AGTTGGGCTTGGGTTCTAACCTGTTGCTG (site AGCTGGGCTCC),0.154
17,TAGAAGGCTTGGGTTCTAACCTGTTGCGT (site TAGAAGGCTAC),2.75
18,AGCCTGGCTTGGGTTCTAACCTGTTGCCT (site AGCCTGACTAG),0.302
19,CAAGATTCTTGGGTTCTAACCTGTTGCCT (site CGAGATTCTAG),0
20,GTGTCTCCTTGGGTTCTAACCTGTTGCCT (site GTGTCTCCTAG),0.962
21,CTTGGACCTTGGGTTCTAACCTGTTGCCT (site CTTGGAACTAG),0.222
22,TCTGATTCTTGGGTTCTAACCTGTTGCGT (site TCTCATTCTAC),0.00698

row,Sequence,recombinant barcode read abundance (log10)
1,TCCAACCCTTGGGTTCTAACCTGTTGCAG (site TCCAATCCTCT),0.0309
2,TAGCTGACTTGGGTTCTAACCTGTTGCCC (site GTTTGACCTCC),0.136
3,GGTCAAACTTGGGTTCTAACCTGTTGCCT (site GGTCTAACTAG),0.0309
4,ACCTCAACTTGGGTTCTAACCTGTTGCCT (site ACGTCAACTAG),0.188
5,ATGAGGCCTTGGGTTCTAACCTGTTGCTA (site TCAGAAGCTCG),0.159
6,AATAAGACTTGGGTTCTAACCTGTTGCCA (site AATAAGACTTG),0.65
7,CTCGCTACTTGGGTTCTAACCTGTTGCTT (site CTCGCTACTAA),0.264
8,GTAAATGCTTGGGTTCTAACCTGTTGCCT (site GTAAGTGCTAG),0.0927
9,TATGGGGCTTGGGTTCTAACCTGTTGCCT (site TATGGGGCTAG),0.246
10,CTTCGACCTTGGGTTCTAACCTGTTGCAT (site CTTGGACCTCT),0.0729
11,ATCTATACTTGGGTTCTAACCTGTTGCCT (site GGACGAGCTCA),0.0107
12,GCAATCCCTTGGGTTCTAACCTGTTGCTA (site GCAATCCCTTA),1.48
13,GAGCTACCTTGGGTTCTAACCTGTTGCCA (site GAGCTACCTCG),0.213
14,CTGCACCCTTGGGTTCTAACCTGTTGCTA (site CTGCACCCTTA),1.61
15,CCGCCTCCTTGGGTTCTAACCTGTTGCGA (site CCGCGTCCTTA),0.0484
16,TTCCGCTCTTGGGTTCTAACCTGTTGCCT (site CTCCGCTCTAG),0.121
17,TGGGACACTTGGGTTCTAACCTGTTGCCG (site AGGGACTCTCG),0.403
18,TTCAAACCTTGGGTTCTAACCTGTTGCCT (site TTCAAACCTAG),0.612
19,CTACTTGCTTGGGTTCTAACCTGTTGCAA (site CTACTTGCTTT),0.326
20,CCTACTCCTTGGGTTCTAACCTGTTGCAG (site CCTACTCCTCT),0.0147
